Tested on: A549 cell line
Assay: MTT cell viability, A549 cell line
Assay type: cell-based, human
Settings: Homo sapiens, A549 cell line, 24 hours, MTT
Description: The above cell lines were plated in 96-well plates at a density of 1×10^4 cells/well for 16 to 20 hours. […] After drug treatment, the cell lines were washed with phosphate-buffered saline (hereinafter referred to PBS), and were replaced with fresh complete RPMI-1640 medium for 2 days. Thereafter, the medium was replaced and the cells were incubated with 0.5 mg/ml of 3-(4,5-dimethylthiazol-2-yl)-2,5-diphenyltetrazolium bromide reagent (hereinafter referred to MTT, Sigma Chemical Co., St. Louis, Mo.) in complete RPMI-1640 medium for 4 hours. The viable cells converted MTT to formazan that generates a blue-purple color when dissolved in dimethyl sulfoxide (hereinafter referred to DMSO). The intensity of formazan was measured at 565 nm using a plate reader (VERSAmax, Molecular Dynamics, Sunnyvale, Calif.). The relative percentage of cell viability was calculated by dividing the absorbance of treated cells by that of the control in each experiment.
After drug treatment, the cells were washed with PBS and replaced with fresh complete RPMI-1640 medium for 2 days. Thereafter, the medium was replaced and the cells were incubated with 0.5 mg/mL of MTT reagent (Sigma Chemical Co., St. Louis, Mo.) in complete RPMI-1640 medium for 4 hours. The intensity of formazan was measured at 565 nm using a plate reader (VERSAmax, Molecular Dynamics, Sunnyvale, Calif.). The relative percentage of cell viability was calculated by dividing the absorbance of treated cells by that of the control in each experiment.

SMILES | viability at 10 µM [%] | viability at 20 µM [%] | viability at 40 µM [%] | viability at 60 µM [%] | viability at 80 µM [%]
CCCCOC(=O)CCC(=O)N1CCN(CCCOc2cc3c(Nc4ccc(F)c(Cl)c4)ncnc3cc2OC)CC1 [Analogue-10, butyl 4-(4-(3-(4-(3-chloro-4-fluorophenylamino)-7-methoxyquinazolin-6-yloxy)propyl)piperazin-1-yl)-4-oxobutanoate] | 94.4 | 86 | 79.1 | 64.1 | 36.9
CCCCCOC(=O)CCC(=O)N1CCN(CCCOc2cc3c(Nc4ccc(F)c(Cl)c4)ncnc3cc2OC)CC1 [Analogue-11, pentyl 4-(4-(3-(4-(3-chloro-4-fluorophenylamino)-7-methoxyquinazolin-6-yloxy)propyl)piperazin-1-yl)-4-oxobutanoate] | 87.1 | 81.2 | 63.6 | 30 | 18.2
COC(=O)CCCCCCC(=O)N1CCN(CCCOc2cc3c(Nc4ccc(F)c(Cl)c4)ncnc3cc2OC)CC1 [Analogue-6, methyl 8-(4-(3-(4-(3-chloro-4-fluorophenylamino)-7-methoxyquinazolin-6-yloxy)propyl)piperazin-1-yl)-8-oxooctanoate] | 92 | 94.3 | 90.7 | 88.5 | 88.9
CCCCCCCCCCCCCOC(=O)CCC(=O)N1CCN(CCCOc2cc3c(Nc4ccc(F)c(Cl)c4)ncnc3cc2OC)CC1 [Analogue-19, tridecyl 4-(4-(3-(4-(3-chloro-4-fluorophenylamino)-7-methoxyquinazolin-6-yloxy)propyl)piperazin-1-yl)-4-oxobutanoate] | 93.7 | 93.8 | 71.1 | 20.6 | 6.8
CCCCCCCCCCCOC(=O)CCC(=O)N1CCN(CCCOc2cc3c(Nc4ccc(F)c(Cl)c4)ncnc3cc2OC)CC1 [Analogue-17, undecyl 4-(4-(3-(4-(3-chloro-4-fluorophenylamino)-7-methoxyquinazolin-6-yloxy)propyl)piperazin-1-yl)-4-oxobutanoate] | 93.4 | 85.2 | 12 | 3.9 | 2.8
COC(=O)CCCCC(=O)N1CCN(CCCOc2cc3c(Nc4ccc(F)c(Cl)c4)ncnc3cc2OC)CC1 [Analogue-4, methyl 6-(4-(3-(4-(3-chloro-4-fluorophenylamino)-7-methoxyquinazolin-6-yloxy)propyl)piperazin-1-yl)-6-oxohexanoate] | 94.6 | 90.4 | 84.3 | 83.3 | 79.4
CCCCCCOC(=O)CCC(=O)N1CCN(CCCOc2cc3c(Nc4ccc(F)c(Cl)c4)ncnc3cc2OC)CC1 [Analogue-12, hexyl 4-(4-(3-(4-(3-chloro-4-fluorophenylamino)-7-methoxyquinazolin-6-yloxy)propyl)piperazin-1-yl)-4-oxobutanoate] | 89.3 | 85.1 | 74.2 | 63.6 | 42.9
CCCOC(=O)CCC(=O)N1CCN(CCCOc2cc3c(Nc4ccc(F)c(Cl)c4)ncnc3cc2OC)CC1 [Analogue-9, propyl 4-(4-(3-(4-(3-chloro-4-fluorophenylamino)-7-methoxyquinazolin-6-yloxy)propyl)piperazin-1-yl)-4-oxobutanoate] | 95.1 | 87 | 80.9 | 70.4 | 23.4
CCCCCCCCOC(=O)CCC(=O)N1CCN(CCCOc2cc3c(Nc4ccc(F)c(Cl)c4)ncnc3cc2OC)CC1 [Analogue-14, octyl 4-(4-(3-(4-(3-chloro-4-fluorophenylamino)-7-methoxyquinazolin-6-yloxy)propyl)piperazin-1-yl)-4-oxobutanoate] | 87.3 | 80 | 48.7 | 26 | 21.7
CCCCCCCCCCCCCCCCCCCOC(=O)CCC(=O)N1CCN(CCCOc2cc3c(Nc4ccc(F)c(Cl)c4)ncnc3cc2OC)CC1 [Analogue-25, nonadecyl 4-(4-(3-(4-(3-chloro-4-fluorophenylamino)-7-methoxyquinazolin-6-yloxy)propyl)piperazin-1-yl)-4-oxobutanoate] | 94.5 | 94.8 | 92.3 | 89.3 | 88.4
COC(=O)CCCC(=O)N1CCN(CCCOc2cc3c(Nc4ccc(F)c(Cl)c4)ncnc3cc2OC)CC1 [Analogue-3, methyl 5-(4-(3-(4-(3-chloro-4-fluorophenylamino)-7-methoxyquinazolin-6-yloxy)propyl)piperazin-1-yl)-5-oxopentanoate] | 99.9 | 94.8 | 91.9 | 91.3 | 89.8
COC(=O)CCCCCCCC(=O)N1CCN(CCCOc2cc3c(Nc4ccc(F)c(Cl)c4)ncnc3cc2OC)CC1 [Analogue-7, methyl 9-(4-(3-(4-(3-chloro-4-fluorophenylamino)-7-methoxyquinazolin-6-yloxy)propyl)piperazin-1-yl)-9-oxononanoate] | 90.3 | 89.7 | 85.8 | 84.8 | 80.9
COC(=O)CCCCCC(=O)N1CCN(CCCOc2cc3c(Nc4ccc(F)c(Cl)c4)ncnc3cc2OC)CC1 [Analogue-5, methyl 7-(4-(3-(4-(3-chloro-4-fluorophenylamino)-7-methoxyquinazolin-6-yloxy)propyl)piperazin-1-yl)-7-oxoheptanoate] | 95.2 | 91.7 | 90.1 | 83.4 | 82.4
CCCCCCCCCCCCCCCCCCOC(=O)CCC(=O)N1CCN(CCCOc2cc3c(Nc4ccc(F)c(Cl)c4)ncnc3cc2OC)CC1 [Analogue-24, octadecyl 4-(4-(3-(4-(3-chloro-4-fluorophenylamino)-7-methoxyquinazolin-6-yloxy)propyl)piperazin-1-yl)-4-oxobutanoate] | 94.8 | 90.5 | 91 | 87.2 | 86.7
CCCCCCCCCCOC(=O)CCC(=O)N1CCN(CCCOc2cc3c(Nc4ccc(F)c(Cl)c4)ncnc3cc2OC)CC1 [Analogue-16, decyl 4-(4-(3-(4-(3-chloro-4-fluorophenylamino)-7-methoxyquinazolin-6-yloxy)propyl)piperazin-1-yl)-4-oxobutanoate] | 95.7 | 88.2 | 15.5 | 3.9 | 2
CCCCCCCCCCCCCCCCOC(=O)CCC(=O)N1CCN(CCCOc2cc3c(Nc4ccc(F)c(Cl)c4)ncnc3cc2OC)CC1 [Analogue-22, hexadecyl 4-(4-(3-(4-(3-chloro-4-fluorophenylamino)-7-methoxyquinazolin-6-yloxy)propyl)piperazin-1-yl)-4-oxobutanoate] | 97.7 | 91.7 | 82.6 | 80 | 74.3
CCCCCCCCCOC(=O)CCC(=O)N1CCN(CCCOc2cc3c(Nc4ccc(F)c(Cl)c4)ncnc3cc2OC)CC1 [Analogue-15, nonyl 4-(4-(3-(4-(3-chloro-4-fluorophenylamino)-7-methoxyquinazolin-6-yloxy)propyl)piperazin-1-yl)-4-oxobutanoate] | 90 | 79.7 | 17.9 | 10.3 | 7.8
CCCCCCCCCCCCCCCOC(=O)CCC(=O)N1CCN(CCCOc2cc3c(Nc4ccc(F)c(Cl)c4)ncnc3cc2OC)CC1 [Analogue-21, pentadecyl 4-(4-(3-(4-(3-chloro-4-fluorophenylamino)-7-methoxyquinazolin-6-yloxy)propyl)piperazin-1-yl)-4-oxobutanoate] | 92 | 91.2 | 85.5 | 81.6 | 81.1
CCOC(=O)CCC(=O)N1CCN(CCCOc2cc3c(Nc4ccc(F)c(Cl)c4)ncnc3cc2OC)CC1 [Analogue-8, ethyl 4-(4-(3-(4-(3-chloro-4-fluorophenylamino)-7-methoxyquinazolin-6-yloxy)propyl)piperazin-1-yl)-4-oxobutanoate] | 77.6 | 70 | 67.4 | 61.6 | 35.6
CCCCCCCCCCCCCCOC(=O)CCC(=O)N1CCN(CCCOc2cc3c(Nc4ccc(F)c(Cl)c4)ncnc3cc2OC)CC1 [Analogue-20, tetradecyl 4-(4-(3-(4-(3-chloro-4-fluorophenylamino)-7-methoxyquinazolin-6-yloxy)propyl)piperazin-1-yl)-4-oxobutanoate] | 100 | 92.3 | 88.6 | 84.9 | 77.2
